Reference: patent US7612087B2, “Heterocyclic compounds as inhibitors of beta-lactamases” (Novexel, priority 2002, dated 2009)

Tests used:
β-lactamase TEM1 = molecular target: T1, β-lactamase TEM1 (Escherichia coli, UniProt P62593); experiment: Inhibition of isolated β-lactamase Tem-1 (Nitrocefin hydrolysis); format: biochemical, E.coli 250HT21; settings: 100 μM Nitrocefin, 50 mM sodium phosphate buffer pH7.0, 37° C.
T1 construct: The β-lactamases are isolated from bacterial strains which are resistant to penicillins and cephalosporins; endogenous in cells; host or cells: E. coli 250HT21 (natural producer; French-press lysate, 100,000 g supernatant)
How it was run: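 TEM-1 from soluble extract of E. coli 250HT21, normalized enzyme, 100 μM Nitrocefin in 50 mM sodium phosphate pH 7.0 at 37 °C. Initial-rate hydrolysis read kinetically at 485 nm, with and without 5 min enzyme–inhibitor preincubation. CI50 from 6 or 8 concentrations in duplicate.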

E. coli 250CF1 (Tem3) = experiment: microbe, parasite or virus in culture; format: cell-based; settings: compound at 5 mg/l, 24 hours at 37° C.; for MIC of Cefotaxime in combination with the compound: Trial 4, 250CF1 E. coli Tem3; for MIC of Piperacillin in combination with the compound: Trial 4, 250CF1 Tem3
Procedure: (§1) The operation is carried out as follows, using the so-called micro-dilution in liquid medium method.
(§2) A series of concentrations of the β-lactamine is prepared in the presence of a constant concentration (5 mg/l) of the product to be studied, each is then seeded with various bacterial strains.
(§3) After incubation for 24 hours in a heating chamber at 37° C., the growth inhibition is evaluated by the absence of any bacterial development, which allows the minimal inhibitory concentrations (MIC) for each strain to be determined, expressed in milligrams/l.

β-lactamase P99 = molecular target: T2, β-lactamase P99 (Enterobacter cloacae, UniProt P05364); experiment: biochemical; settings: 100 μM Nitrocefin, 50 mM sodium phosphate buffer pH7.0, 37° C.; read-out: IC50 nM/P99
T2 construct: The β-lactamases are isolated from bacterial strains which are resistant to penicillins and cephalosporins; endogenous in cells; host or cells: Enterobacter cloacae 293HT6 (natural producer; French-press lysate, 100,000 g supernatant)
How it was run: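 P99 β-lactamase, taken from the soluble fraction of an Enterobacter cloacae 293HT6 lysate, was assayed at 37° C. in 50 mM sodium phosphate buffer pH7.0 with 100 μM Nitrocefin as the chromogenic substrate. Hydrolysis was followed kinetically at 485 nm at initial speed, with and without a 5 mn enzyme–inhibitor preincubation. Inhibitors were tested at 6 or 8 concentrations in duplicate, and IC50 was fitted with GraFit.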

E. coli 250SJ1 (Tem7) = experiment: MIC, micro-dilution in liquid medium, β-lactamine with product at 5 mg/l; format: cell-based; settings: compound at 5 mg/l, 24 hours at 37° C.; for MIC of Cefotaxime in combination with the compound: Trial 5, 250SJ1 E. coli Tem7; for MIC of Piperacillin in combination with the compound: Trial 5, 250SJ1 Tem7
Procedure: as §1, §2, §3

[1] = tested on: E. coli 250HT23 (Class D); experiment: as above; format: cell-based; settings: compound at 5 mg/l, 24 hours at 37° C.; for MIC of Piperacillin in combination with the compound: Trial 8, 250HT23 Class D; for MIC of Cefotaxime in combination with the compound: Trial 8, 250HT23 E. coli Class D
Procedure: as §1, §2, §3

[2] = tested on: P. aeruginosa 391HT7 (PSE); experiment: as above; format: cell-based; settings: compound at 5 mg/l, 24 hours at 37° C.; for MIC of Cefotaxime in combination with the compound: Trial 11, 391HT7 P. aeruginosa PSE; for MIC of Piperacillin in combination with the compound: Trial 11, 391HT7 PSE
Procedure: as §1, §2, §3

[3] = tested on: P. aeruginosa 391HT8 (PSE); experiment: as above; format: cell-based; settings: compound at 5 mg/l, 24 hours at 37° C.; for MIC of Cefotaxime in combination with the compound: Trial 12, 391HT8 P. aeruginosa PSE; for MIC of Piperacillin in combination with the compound: Trial 12, 391HT8 PSE
Procedure: as §1, §2, §3

E. coli 250HT21 (Tem1) = experiment: as above; format: cell-based; settings: compound at 5 mg/l, 24 hours at 37° C.; for MIC of Cefotaxime in combination with the compound: Trial 2, 250HT21 E. coli Tem1; for MIC of Piperacillin in combination with the compound: Trial 2, 250HT21 Tem1
Procedure: as §1, §2, §3

E. coli 250HT22 (Tem2) = experiment: as above; format: cell-based; settings: compound at 5 mg/l, 24 hours at 37° C.; for MIC of Cefotaxime in combination with the compound: Trial 3, 250HT22 E. coli Tem2; for MIC of Piperacillin in combination with the compound: Trial 3, 250HT22 Tem2
Procedure: as §1, §2, §3

E. coli 250HT26 (SHV1) = experiment: as above; format: cell-based; settings: compound at 5 mg/l, 24 hours at 37° C.; for MIC of Cefotaxime in combination with the compound: Trial 6, 250HT26 E. coli SHV1; for MIC of Piperacillin in combination with the compound: Trial 6, 250HT26 SHV1
Procedure: as §1, §2, §3

Serratia 301HT6 = experiment: as above; format: cell-based; settings: compound at 5 mg/l; Trial 10, 301HT6 Serratia; 24 hours at 37° C.
Procedure: as §1, §2, §3

[4] = tested on: E. cloacae 293HT6 (Class C); experiment: as above; format: cell-based; settings: compound at 5 mg/l, 24 hours at 37° C.; for MIC of Piperacillin in combination with the compound: Trial 9, 293HT6 Class; for MIC of Cefotaxime in combination with the compound: Trial 9, 293HT6 E. cloacae Class C
Procedure: as §1, §2, §3

E. coli 250BE1 (SHV4) = experiment: as above; format: cell-based; settings: compound at 5 mg/l, 24 hours at 37° C.; for MIC of Cefotaxime in combination with the compound: Trial 7, 250BE1 E. coli SHV4; for MIC of Piperacillin in combination with the compound: Trial 7, 250BE1 SHV4
Procedure: as §1, §2, §3

[5] = tested on: S. aureus 011GO66 (PeniR); experiment: as above; format: cell-based; settings: compound at 5 mg/l, 24 hours at 37° C.; for MIC of Cefotaxime in combination with the compound: Trial 1, 011GO66 S. aureus PeniR; for MIC of Piperacillin in combination with the compound: Trial 1, 011GO66 peniR
Procedure: as §1, §2, §3

T2 sequence (P05364 21-381): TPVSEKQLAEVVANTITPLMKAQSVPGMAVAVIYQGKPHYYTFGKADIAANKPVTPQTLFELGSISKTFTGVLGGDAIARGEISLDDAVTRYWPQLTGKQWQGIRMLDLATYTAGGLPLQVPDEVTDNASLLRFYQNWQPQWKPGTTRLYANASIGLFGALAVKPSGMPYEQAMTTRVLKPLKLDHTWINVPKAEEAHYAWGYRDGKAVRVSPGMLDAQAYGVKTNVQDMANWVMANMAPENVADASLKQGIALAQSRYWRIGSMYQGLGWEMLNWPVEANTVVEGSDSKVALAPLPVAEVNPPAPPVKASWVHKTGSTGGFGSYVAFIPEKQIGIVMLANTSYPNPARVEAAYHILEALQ
T1 sequence (P62593 24-286 limits assumed): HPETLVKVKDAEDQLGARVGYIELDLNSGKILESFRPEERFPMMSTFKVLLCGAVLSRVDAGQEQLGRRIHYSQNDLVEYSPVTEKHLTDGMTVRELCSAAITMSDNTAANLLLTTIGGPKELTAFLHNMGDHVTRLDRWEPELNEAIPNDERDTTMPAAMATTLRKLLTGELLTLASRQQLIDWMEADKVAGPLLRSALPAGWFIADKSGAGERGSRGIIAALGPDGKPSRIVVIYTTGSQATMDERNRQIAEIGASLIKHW

| Structure (SMILES) | IC50 (β-lactamase TEM1) [nM] | MIC of Cefotaxime in combination with the compound (E. coli 250CF1 (Tem3)) [µg/mL] | MIC of Piperacillin in combination with the compound (E. coli 250CF1 (Tem3)) [µg/mL] | IC50 (β-lactamase P99) [nM] | MIC of Cefotaxime in combination with the compound (E. coli 250SJ1 (Tem7)) | MIC of Piperacillin in combination with the compound (E. coli 250SJ1 (Tem7)) [µg/mL] | MIC of Piperacillin in combination with the compound [1] [µg/mL] | MIC of Cefotaxime in combination with the compound [1] | MIC of Cefotaxime in combination with the compound [2] [µg/mL] | MIC of Piperacillin in combination with the compound [2] [µg/mL] | MIC of Cefotaxime in combination with the compound [3] [µg/mL] | MIC of Piperacillin in combination with the compound [3] [µg/mL] | MIC of Cefotaxime in combination with the compound (E. coli 250HT21 (Tem1)) | MIC of Piperacillin in combination with the compound (E. coli 250HT21 (Tem1)) [µg/mL] | MIC of Cefotaxime in combination with the compound (E. coli 250HT22 (Tem2)) | MIC of Piperacillin in combination with the compound (E. coli 250HT22 (Tem2)) [µg/mL] | MIC of Cefotaxime in combination with the compound (E. coli 250HT26 (SHV1)) | MIC of Piperacillin in combination with the compound (E. coli 250HT26 (SHV1)) [µg/mL] | MIC of Cefotaxime in combination with the compound (Serratia 301HT6) | MIC of Piperacillin in combination with the compound (Serratia 301HT6) [µg/mL] | other results |
| --- | --- | --- | --- | --- | --- | --- | --- | --- | --- | --- | --- | --- | --- | --- | --- | --- | --- | --- | --- | --- | --- |
| O=C(NCCc1cccnc1)[C@H]1CC[C@@H]2CN1C(=O)N2OS(=O)(=O)[O-].[Na+] (relative stereo) [Example 36, sodium salt of trans-7-oxo-N-[2-(3-pyridinyl)ethyl]-6-(sulphooxy)-1,6-diazabicyclo[3.2.1]octane-2-carboxamide] | 23 | 0.3 | 40 | 110 | <=0.04 μg/ml | 20 | 20 | <=0.04 μg/ml | 40 | >40 | 40 | >40 | <=0.04 μg/ml | 5 | <=0.04 μg/ml | 40 | <=0.04 μg/ml | 20 | 0.08 µg/mL | 1.2 | MIC of Piperacillin in combination with the compound [4]: 20 µg/mL; MIC of Cefotaxime in combination with the compound [4]: 20 µg/mL; MIC of Cefotaxime in combination with the compound (E. coli 250BE1 (SHV4)): 0.3 µg/mL; MIC of Piperacillin in combination with the compound (E. coli 250BE1 (SHV4)): >40 µg/mL; MIC of Cefotaxime in combination with the compound [5]: 1.2 µg/mL; MIC of Piperacillin in combination with the compound [5]: 1.2 µg/mL |
| O=C(NCCc1ccncc1)[C@H]1CC[C@@H]2CN1C(=O)N2OS(=O)(=O)[O-].[Na+] (relative stereo) [Example 37, sodium salt of trans-7-oxo-N-[2-(4-pyridinyl)ethyl]-6-(sulphooxy)-1,6-diazabicyclo[3.2.1]octane-2-carboxamide] | 29 | 0.3 | 40 | 160 | 0.08 µg/mL | >40 | 40 | <=0.04 μg/ml | 20 | >40 | 20 | >40 | <=0.04 μg/ml | 2.5 | <=0.04 μg/ml | >40 | <=0.04 μg/ml | 20 | 0.08 µg/mL | 2.5 | MIC of Piperacillin in combination with the compound [4]: 40 µg/mL; MIC of Cefotaxime in combination with the compound [4]: >40 µg/mL; MIC of Cefotaxime in combination with the compound (E. coli 250BE1 (SHV4)): 0.6 µg/mL; MIC of Piperacillin in combination with the compound (E. coli 250BE1 (SHV4)): >40 µg/mL; MIC of Cefotaxime in combination with the compound [5]: 1.2 µg/mL; MIC of Piperacillin in combination with the compound [5]: 0.6 µg/mL |
| O=C(NCCc1ccccn1)[C@H]1CC[C@@H]2CN1C(=O)N2OS(=O)(=O)[O-].[Na+] (relative stereo) [Example 38, sodium salt of trans-7-oxo-N-[2-(2-pyridinyl)ethyl]-6-(sulphooxy)-1,6-diazabicyclo[3.2.1]octane-2-carboxamide] | 35 | 0.3 | 20 | 77 | <=0.04 μg/ml | >40 | >40 | <=0.04 μg/ml | 40 | >40 | 40 | >40 | <=0.04 μg/ml | 5 | <=0.04 μg/ml | >40 | <=0.04 μg/ml | 40 | 0.08 µg/mL | 1.2 | MIC of Piperacillin in combination with the compound [4]: 40 µg/mL; MIC of Cefotaxime in combination with the compound [4]: 20 µg/mL; MIC of Cefotaxime in combination with the compound (E. coli 250BE1 (SHV4)): 0.3 µg/mL; MIC of Piperacillin in combination with the compound (E. coli 250BE1 (SHV4)): >40 µg/mL; MIC of Cefotaxime in combination with the compound [5]: 1.2 µg/mL; MIC of Piperacillin in combination with the compound [5]: 0.6 µg/mL |
| NC(=O)c1cccc(NC(=O)[C@H]2CC[C@@H]3CN2C(=O)N3OS(=O)(=O)[O-])c1.[Na+] (relative stereo) [Example 39, sodium salt of trans-N-[3-(aminocarbonyl)phenyl]-7-oxo-6-(sulphooxy)-1,6-diazabicyclo[3.2.1]octane-2-carboxamide] | 31 | 0.08 | 40 | 50 | <=0.04 μg/ml | >40 | 10 | <=0.04 μg/ml | 20 | >40 | 20 | >40 | <=0.04 μg/ml | 2.5 | <=0.04 μg/ml | 20 | <=0.04 μg/ml | 40 | <=0.04 μg/ml | 0.6 | MIC of Piperacillin in combination with the compound [4]: 20 µg/mL; MIC of Cefotaxime in combination with the compound [4]: 1.2 µg/mL; MIC of Cefotaxime in combination with the compound (E. coli 250BE1 (SHV4)): 0.08 µg/mL; MIC of Piperacillin in combination with the compound (E. coli 250BE1 (SHV4)): 20 µg/mL; MIC of Cefotaxime in combination with the compound [5]: 2.5 µg/mL; MIC of Piperacillin in combination with the compound [5]: 1.2 µg/mL |
